PubChem BioAssay (NCI)
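Where inhibition never reached the appropriate level, the endpoint shown equals the highest concentration tested. Otherwise, values were interpolated linearly from a five-concentration, 48-hour dose response in 96-well plates. The concentration for full growth arrest is given as TGI.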

Experiments:
Test in all cases: NCI-60 cell line screen, 48 h
786-0 renal = tested on: 786-0 renal
A498 renal = tested on: A498 renal
A549 NSCLC = tested on: A549 NSCLC
ACHN renal = tested on: ACHN renal
BT-549 breast = tested on: BT-549 breast
CAKI-1 renal = tested on: CAKI-1 renal
CCRF-CEM leukemia = tested on: CCRF-CEM leukemia
DU-145 prostate = tested on: DU-145 prostate
EKVX NSCLC = tested on: EKVX NSCLC
HCC-2998 colon = tested on: HCC-2998 colon
HCT-116 colon = tested on: HCT-116 colon
HCT-15 colon = tested on: HCT-15 colon
HL-60(TB) leukemia = tested on: HL-60(TB) leukemia
HOP-62 NSCLC = tested on: HOP-62 NSCLC
HOP-92 NSCLC = tested on: HOP-92 NSCLC
HS 578T breast = tested on: HS 578T breast
HT29 colon = tested on: HT29 colon
IGROV1 ovarian = tested on: IGROV1 ovarian
K-562 leukemia = tested on: K-562 leukemia
KM12 colon = tested on: KM12 colon
LOX IMVI melanoma = tested on: LOX IMVI melanoma
M14 melanoma = tested on: M14 melanoma
MALME-3M melanoma = tested on: MALME-3M melanoma
MCF7 breast = tested on: MCF7 breast
MDA-MB-435 = tested on: MDA-MB-435
MDA-N = tested on: MDA-N
MOLT-4 leukemia = tested on: MOLT-4 leukemia
NCI-H226 lung = tested on: NCI-H226 lung
NCI-H23 lung = tested on: NCI-H23 lung
NCI-H460 lung = tested on: NCI-H460 lung
NCI-H522 lung = tested on: NCI-H522 lung
NCI/ADR-RES ovarian = tested on: NCI/ADR-RES ovarian
OVCAR-3 ovarian = tested on: OVCAR-3 ovarian
OVCAR-4 ovarian = tested on: OVCAR-4 ovarian
OVCAR-5 ovarian = tested on: OVCAR-5 ovarian
OVCAR-8 ovarian = tested on: OVCAR-8 ovarian
PC-3 prostate = tested on: PC-3 prostate
RPMI-8226 leukemia = tested on: RPMI-8226 leukemia
RXF 393 renal = tested on: RXF 393 renal
SF-268 CNS = tested on: SF-268 CNS
SF-295 CNS = tested on: SF-295 CNS
SF-539 CNS = tested on: SF-539 CNS
SK-MEL-2 melanoma = tested on: SK-MEL-2 melanoma
SK-MEL-28 melanoma = tested on: SK-MEL-28 melanoma
SK-MEL-5 melanoma = tested on: SK-MEL-5 melanoma
SK-OV-3 ovarian = tested on: SK-OV-3 ovarian
SN12C renal = tested on: SN12C renal
SNB-19 CNS = tested on: SNB-19 CNS
SNB-75 CNS = tested on: SNB-75 CNS
SR leukemia = tested on: SR leukemia
SW-620 colon = tested on: SW-620 colon
T-47D breast = tested on: T-47D breast
UACC-257 melanoma = tested on: UACC-257 melanoma
UACC-62 melanoma = tested on: UACC-62 melanoma
UO-31 renal = tested on: UO-31 renal
COLO 205 colon = tested on: COLO 205 colon
MDA-MB-231 breast = tested on: MDA-MB-231 breast
TK-10 renal = tested on: TK-10 renal
U251 CNS = tested on: U251 CNS

Question: What does the source list for COc1ccc(/C=C2\C[C@H]3[C@@H]4CCC5=C/C(=N/O)CC[C@]5(C)[C@H]4CC[C@]3(C)\C2=N\O)cc1OC?
Answer: TGI (786-0 renal): > 100 µM; TGI (A498 renal): > 100 µM; TGI (A549 NSCLC): > 100 µM; TGI (ACHN renal): > 100 µM; TGI (BT-549 breast): > 100 µM; TGI (CAKI-1 renal): > 100 µM; TGI (CCRF-CEM leukemia): > 100 µM; TGI (DU-145 prostate): > 100 µM; TGI (EKVX NSCLC): 32 µM; TGI (HCC-2998 colon): > 100 µM; TGI (HCT-116 colon): > 100 µM; TGI (HCT-15 colon): > 100 µM; TGI (HL-60(TB) leukemia): 76.8 µM; TGI (HOP-62 NSCLC): > 100 µM; TGI (HOP-92 NSCLC): > 100 µM; TGI (HS 578T breast): > 100 µM; TGI (HT29 colon): > 100 µM; TGI (IGROV1 ovarian): > 100 µM; TGI (K-562 leukemia): > 100 µM; TGI (KM12 colon): > 100 µM; TGI (LOX IMVI melanoma): > 100 µM; TGI (M14 melanoma): > 100 µM; TGI (MALME-3M melanoma): > 100 µM; TGI (MCF7 breast): > 100 µM; TGI (MDA-MB-435): > 100 µM; TGI (MDA-N): > 100 µM; TGI (MOLT-4 leukemia): 94.3 µM; TGI (NCI-H226 lung): > 100 µM; TGI (NCI-H23 lung): > 100 µM; TGI (NCI-H460 lung): > 100 µM; TGI (NCI-H522 lung): > 100 µM; TGI (NCI/ADR-RES ovarian): > 100 µM; TGI (OVCAR-3 ovarian): > 100 µM; TGI (OVCAR-4 ovarian): > 100 µM; TGI (OVCAR-5 ovarian): > 100 µM; TGI (OVCAR-8 ovarian): > 100 µM; TGI (PC-3 prostate): > 100 µM; TGI (RPMI-8226 leukemia): 60.3 µM; TGI (RXF 393 renal): > 100 µM; TGI (SF-268 CNS): > 100 µM; TGI (SF-295 CNS): 88.4 µM; TGI (SF-539 CNS): > 100 µM; TGI (SK-MEL-2 melanoma): 54.5 µM; TGI (SK-MEL-28 melanoma): > 100 µM; TGI (SK-MEL-5 melanoma): 14.9 µM; TGI (SK-OV-3 ovarian): > 100 µM; TGI (SN12C renal): > 100 µM; TGI (SNB-19 CNS): > 100 µM; TGI (SNB-75 CNS): > 100 µM; TGI (SR leukemia): > 100 µM; TGI (SW-620 colon): > 100 µM; TGI (T-47D breast): > 100 µM; TGI (UACC-257 melanoma): > 100 µM; TGI (UACC-62 melanoma): > 100 µM; TGI (UO-31 renal): > 100 µM

Question: O=C(Cc1ccccc1)NN1C(=O)/C(=C\c2ccccc2)SC1=Nc1ccccc1 was tested. Which TGI (786-0 renal) did it give?
Answer: > 100 µM

Question: And the TGI (A498 renal)?
Answer: > 100 µM

Question: And the TGI (A549 NSCLC)?
Answer: > 100 µM

Question: What about the TGI (ACHN renal) of the same compound?
Answer: > 100 µM

Question: And the TGI (BT-549 breast)?
Answer: > 100 µM

Question: And the TGI (COLO 205 colon)?
Answer: > 100 µM

Question: And the TGI (DU-145 prostate)?
Answer: > 100 µM

Question: And the TGI (EKVX NSCLC)?
Answer: > 100 µM

Question: And the TGI (HCC-2998 colon)?
Answer: > 100 µM

Question: What about the TGI (HCT-116 colon) of the same compound?
Answer: > 100 µM

Question: And the TGI (HCT-15 colon)?
Answer: > 100 µM

Question: And the TGI (HOP-62 NSCLC)?
Answer: > 100 µM

Question: And the TGI (HOP-92 NSCLC)?
Answer: > 100 µM

Question: What about the TGI (HS 578T breast) of the same compound?
Answer: > 100 µM

Question: And the TGI (HT29 colon)?
Answer: > 100 µM

Question: What about the TGI (IGROV1 ovarian) of the same compound?
Answer: > 100 µM

Question: What about the TGI (KM12 colon) of the same compound?
Answer: > 100 µM

Question: And the TGI (M14 melanoma)?
Answer: > 100 µM

Question: And the TGI (MCF7 breast)?
Answer: > 100 µM

Question: And the TGI (MDA-MB-231 breast)?
Answer: > 100 µM

Question: What about the TGI (MDA-MB-435) of the same compound?
Answer: > 100 µM

Question: What about the TGI (MDA-N) of the same compound?
Answer: > 100 µM

Question: And the TGI (MOLT-4 leukemia)?
Answer: > 100 µM

Question: What about the TGI (NCI-H226 lung) of the same compound?
Answer: > 100 µM

Question: What about the TGI (NCI-H23 lung) of the same compound?
Answer: > 100 µM

Question: What about the TGI (NCI-H460 lung) of the same compound?
Answer: > 100 µM

Question: And the TGI (NCI/ADR-RES ovarian)?
Answer: > 100 µM

Question: And the TGI (OVCAR-3 ovarian)?
Answer: > 100 µM

Question: What about the TGI (OVCAR-4 ovarian) of the same compound?
Answer: > 100 µM

Question: And the TGI (OVCAR-5 ovarian)?
Answer: > 100 µM

Question: And the TGI (OVCAR-8 ovarian)?
Answer: > 100 µM

Question: And the TGI (RXF 393 renal)?
Answer: > 100 µM

Question: And the TGI (SF-268 CNS)?
Answer: > 100 µM

Question: What about the TGI (SF-295 CNS) of the same compound?
Answer: > 100 µM

Question: And the TGI (SF-539 CNS)?
Answer: > 100 µM

Question: And the TGI (SK-MEL-2 melanoma)?
Answer: > 100 µM

Question: And the TGI (SK-MEL-28 melanoma)?
Answer: > 100 µM

Question: What about the TGI (SK-MEL-5 melanoma) of the same compound?
Answer: > 100 µM

Question: And the TGI (SK-OV-3 ovarian)?
Answer: > 100 µM

Question: And the TGI (SN12C renal)?
Answer: > 100 µM

Question: And the TGI (SNB-19 CNS)?
Answer: > 100 µM

Question: What about the TGI (SNB-75 CNS) of the same compound?
Answer: > 100 µM

Question: And the TGI (SW-620 colon)?
Answer: > 100 µM

Question: And the TGI (T-47D breast)?
Answer: > 100 µM

Question: And the TGI (TK-10 renal)?
Answer: > 100 µM

Question: What about the TGI (U251 CNS) of the same compound?
Answer: > 100 µM

Question: And the TGI (UACC-257 melanoma)?
Answer: > 100 µM

Question: And the TGI (UACC-62 melanoma)?
Answer: > 100 µM

Question: And the TGI (UO-31 renal)?
Answer: > 100 µM
